How the values were obtained:
HCT 116 cells = assay: cells; details: Homo sapiens, HCT-116, 48 h; for GI50: read-out: HCT116 GI50; for CC50: read-out: HCT116 LC50
Method: (§1) Experimental drugs are screened for anti-cancer activity in three cell lines for their GI50, TGI and LC50 values (using five concentrations for each compound). The cell lines are maintained in DMEM containing 10% fetal bovine serum. 96 well micro titer plates are inoculated with cells in 100 μL for 24 h at 37° C., 5% CO2, 95% air and 100% relative humidity. 5000 HCT 116 cells/well, 5000 NCIH 460 cells/well and 5000 U251 cells/well are plated. A separate plate with these cell lines is also inoculated to determine cell viability before the addition of the compounds (T0) (See Table I).
(§2) Following 24-hour incubation, experimental drugs are added to the 96 well plates. Each plate contains one of the above cell lines and the following in triplicate: five different concentrations (0.01, 0.1, 1, 10 and 100 μM) of four different compounds, appropriate dilutions of a cytotoxic standard and control (untreated) wells. Compounds are dissolved in DMSO to make 20 mM stock solutions on the day of drug addition and frozen at −20° C. Serial dilutions of these 20 mM stock solutions are made in complete growth medium such that 100 μL of these drug solutions in medium, of final concentrations equaling 0.01, 0.1, 1, 10 and 100 μM can be added to the cells in triplicate. […] (See Table I).
(§3) For T0 measurement, 24 hours after seeding the cells, 10 μL of 3-(4,5-Dimethyl-2-thiazolyl)-2,5-diphenyl-2H-tetrazolium (MTT) solution per well is added and incubation carried out for 3 hours at 37° C., 5% CO2, 95% air and 100% relative humidity, protected from light. Cells incubated with compounds for 48 hours are treated similarly except with the addition of 20 μL MTT solution per well and a subsequent incubation under the same conditions. After 3 hours of MTT incubation, well contents are aspirated carefully followed by addition of 150 μL DMSO per well. Plates are agitated to ensure solution of the formazan crystals in DMSO and absorbance read at 570 nm. (See Table I).
(§4) Percent growth is calculated for each compound's concentration relative to the control and zero measurement wells (T0; viability right before compound addition).
(§5) If a test well's O.D. value is lower than the T0 measurement for that cell line, then, % Growth=(test−zero)/zero×100

MDAMB231/U251 [1] = assay: cells; details: 48 h, read-out: MDAMB231/U251 GI50
Method: as §1, §2, §3, §4, §5

NCIH 460 cells = assay: cells; details: Homo sapiens, NCI-H460, 48 h; for GI50: read-out: NCIH460 GI50; for CC50: read-out: NCIH460 LC50
Method: as §1, §2, §3, §4, §5

[2] = system: NCIH460, HCT116, MDAMB231/U251; assay: Anti-cancer screen, mean GI50 over the cell lines; format: cell-based; details: mean over the three cell lines; no unit in table
Method: as §1, §2, §3
Percent growth is calculated for each compound's concentration relative to the control and zero measurement wells (T0; viability right before compound addition). […]

[3] = system: HDAC activity (Mouse Liver Extract); assay: Histone Deacetylase (HDAC) Inhibition Assay using Boc-Lys (Ac)-AMC Substrate; format: biochemical; details: mouse liver enzyme; for HDAC Inhibition 1 μM: inhibitor at 1 μM; for HDAC Inhibition 1 μM / HDAC Inhibition 10 μM: in % (unit assumed); for HDAC Inhibition 10 μM: inhibitor at 10 μM
Method: Histone Deacetylase (HDAC) Inhibition Assay using Boc-Lys (Ac)-AMC Substrate: Inhibition of HDAC has been implicated to modulate transcription and to induce apoptosis or differentiation in cancer cells. The fluorometric assay provides a fast and fluorescence based method that eliminates radioactivity, extractions or chromatography, as used in traditional assays. The assay based on two steps. First, the HDAC fluorometric substrate, which comprises an acetylated lysine side chain, is incubated with a sample containing HDAC activity (Mouse Liver Extract). Deacetylation of the substrate sensitizes the substrate, in the second step; treatment with the Trypsin stop solution produces a fluorophore that can be easily analyzed using fluorescence plate reader.
Assay was done in 96 well black microplate and total volume of the assay is 100 ul. Mouse liver enzyme is diluted 1:6 with HDAC buffer. Enzyme cocktail made of 10 ul of diluted enzyme and 30 ul of HDAC buffer. 40 ul of enzyme cocktail dispensed into each well. 10 ul of different concentrations of inhibitor added in to each well, except enzyme control well. Preincubated the plate at 30° C. for 5 minutes. The HDAC reaction is started by adding 50 ul of HDAC substrate (Boc-Lys (Ac)-AMC Substrate) solution. Incubated the plate at 30° C. for 30 minutes. Adding 100 ul of Trypsin stop solution stops the reaction. The plate is incubated again at 30° C. for 20-30 minutes. The release of AMC is monitored by measuring the fluorescence at excitation wavelength of 365 or 360 nm and emission wavelength of 440 or 460 nm. Buffer and substrate alone kept for blank subtraction. (Dennis Wegener et al, Anal. Biochem, 321, 2003, 202-208).

MDAMB231/U251 [4] = assay: cells; details: 48 h, read-out: MDAMB231/U251 LC50

Row | Structure (SMILES) | melting point [°C] | GI50 (HCT 116 cells) [µM] | CC50 (HCT 116 cells) [µM] | GI50 (MDAMB231/U251 [1]) [µM] | GI50 (NCIH 460 cells) [µM] | CC50 (NCIH 460 cells) [µM] | GI50 [2] [µM] | HDAC Inhibition 1 μM [3] | HDAC Inhibition 10 μM [3] | CC50 (MDAMB231/U251 [4]) [µM] | IC50 [3] [µM]
1 | COc1cc(/C=C(\C(=O)NCCCCCC(=O)NOCc2ccccc2)c2ccc(F)cc2)cc(OC)c1 [Example 33] | 79.9 to 86.7 |  |  |  |  |  |  |  |  |  | 
2 | COc1cc(/C=C(\C(=O)NCCCCCC(=O)NO)c2ccc(F)cc2)cc(OC)c1OC [Example 48, (2Z)-3-(3,4,5-Trimethoxyphenyl)-2-(4 fluorophenyl)-N-[6-(hydroxyamino)-6-oxohexyl]acrylamide] | 153 to 157 |  |  |  |  |  |  |  |  |  | 
3 | COc1c(F)c(F)c(/C(=C/c2ccc(F)cc2)C(=O)NCCCCCC(=O)NC(Cc2ccc(O)cc2)C(=O)NO)c(F)c1F (stereo not drawn) [Example 56] | 162.4 to 165.2 |  |  |  |  |  |  |  |  |  | 
4 | CSc1ccc(/C=C(\C(=O)NCCCCCC(=O)NC(Cc2ccc(O)cc2)C(=O)NO)c2ccc(F)cc2)cc1 (stereo not drawn) [Example 54] | 142.1 to 145.4 |  |  |  |  |  |  |  |  |  | 
5 | O=C(CCCCCNC(=O)/C(=C\c1ccc(F)c(C(F)(F)F)c1)c1ccc(C(F)(F)F)cc1)NO [Example 22, (2Z)-3-(4-Fluoro-3-trifluoromethyl-phenyl)-2-(4-trifluoromethylphenyl)-N-[6-(hydroxyamino)-6-oxohexyl]acrylamide] | 95.1 to 103.6 |  |  |  |  |  |  |  |  |  | 
6 | O=C(CCCCCNC(=O)/C(=C\c1ccc(Cl)s1)c1ccc(F)cc1)NO [Example 44, (2Z)-3-(5-Chlorothiophen-2-yl)-2-(4-fluorophenyl)-N-[6-(hydroxyamino)-6-oxohexyl]acrylamide] | 181 to 185.2 |  |  |  |  |  |  |  |  |  | 
7 | COc1cc(/C=C(\C(=O)NCCCCCC(=O)NO)c2ccc(O)cc2)cc(OC)c1 [Example 11, (2Z)-3-(3,5-dimethoxyphenyl)-2-(4-hydroxyphenyl)-N-[6-(hydroxyamino)-6-oxohexyl]acrylamide] | 144.1 to 144.6 |  |  |  |  |  |  |  |  |  | 
8 | O=C(CCCCCNC(=O)/C(=C\c1ccc(F)cc1Cl)c1ccccc1)NO [Example 31, (2Z)-3-(2-Chloro-4-fluorophenyl)-2-(phenyl)-N-[6-(hydroxyamino)-6-oxohexyl]acrylamide] |  | 5 | 97 | 6 | 9.7 | > 100 | 6.9 | 72.20 | 91.49 | > 100 | 
9 | COc1cc(/C=C(\C(=O)NCCCCCC(=O)Nc2ccccc2O)c2ccc(O)cc2)cc(OC)c1OC [Example 6] |  | 38 | 91 | 60 | 44 | 85 | 47 | 15.9 | 36.1 | > 100 | 
10 | O=C(CCCCCNC(=O)/C(=C\c1ccncc1)c1ccc(F)cc1)NO [Example 14, (2Z)-3-(4-Pyridine)-2-(4-fluorophenyl)-N-[6-(hydroxyamino)-6-oxohexyl]acrylamide] |  | > 100 | > 100 | > 100 | > 100 | > 100 | > 100 | 21.1 | 35.4 | > 100 | 
11 | O=C(CCCCCNC(=O)/C(=C\c1ccc(F)c(F)c1)c1ccc(F)cc1)NO [Example 21] | 135.8 to 139.4 |  |  |  |  |  |  |  |  |  | 
12 | CC(=O)N(O)C(=O)CCCCCNC(=O)/C(=C\c1ccc(Cl)o1)c1ccc(F)cc1 [Example 53, N-Acetyl-6-{[(2Z)-3-(5-chloro-2-furyl)-2-(4-fluorophenyl)-acrylamide]}-N-hydroxyhexanamide] |  | 5 | 65 | 5 | 13 | 75 | 7.7 | 69.80 | 95.25 | 70 | 0.06
13 | CON(C)C(=O)CCCCCNC(=O)/C(=C\c1ccc(SC)cc1)c1ccc(F)cc1 [Example 18, (2Z)-3-(4-Thiomethylphenyl)-2-(4-fluorophenyl)-N-[6-(N,O dimethylamine)-6-oxohexyl]acrylamide] |  | 55 | > 100 | 0.8 | 0.5 | > 100 | 18.8 | 2.26 | 0.89 | > 100 | 
14 | Cc1ncsc1C=C(C(=O)NCCCCCC(=O)NO)c1ccc(Cl)cc1 (stereo in doubt) [Example 12, (2Z)-3-(4-Methyl-1,3-thiazol-5-yl)-2-(4-chlorophenyl)-N-[6-(hydroxyamino)-6-oxohexyl]acrylamide] | 78.5 to 79 |  |  |  |  |  |  |  |  |  | 
15 | COc1cc(/C=C(\C(=O)NCCCCCC(=O)Nc2ccccc2O)c2ccc(O)cc2)cc(OC)c1 [Example 5] |  | 35 | 90 | 65 | 50 | 100 | 50 | 19.6 | 35.3 | 92 | 
16 | CSc1ccc(/C=C(\C(=O)NCCCCCC(=O)Nc2nccs2)c2ccc(F)cc2)cc1 [Example 20, (2Z)-3-(4-Thiomethylphenyl)-2-(4-fluorophenyl)-N-[6-(2-thiazoleamine)-6-oxohexyl]acrylamide] |  | > 100 | > 100 | 3 | 1 | > 100 | 2 |  | 5.57 | > 100 | 
17 | O=C(CCCCCNC(=O)/C(=C\c1ccc(F)c(Cl)c1)c1ccc(F)cc1)NO [Example 10, (2Z)-3-(3-Chloro,4-fluorophenyl)-2-(4-fluorophenyl)-N-[6-(hydroxyamino)-6-oxohexyl]acrylamide] | 163.8 to 164.3 |  |  |  |  |  |  |  |  |  | 
18 | O=C(CCCCCNC(=O)/C(=C\c1ccc(F)c(Cl)c1)c1ccc(O)cc1)NO [Example 42, (2Z)-3-(3-Chloro-4-fluorophenyl)-2-(4-hydroxyphenyl)-N-[6-(hydroxyamino)-6-oxohexyl]acrylamide] | 100.3 to 103.9 |  |  |  |  |  |  |  |  |  | 
19 | O=C(CCCCCNC(=O)/C(=C\c1ccc(Br)s1)c1ccc(Br)cc1)NO [Example 13, (2Z)-3-(5-Bromo-2-thienyl)-2-(4-bromophenyl)-N-[6-(hydroxyamino)-6-oxohexyl]acrylamide] |  | 5 | 70 | 3 | 7 | 75 | 5 | 53.83 | 89.18 | 80 | 2.95
